# Source: US20250163054A1, “SUBSTITUTED BICYCLIC HETEROARYL COMPOUNDS USEFUL AS INHIBITORS OF TLR9” (Bristol-Myers Squibb Company, priority 2022, published 2025)
# What was measured:
# Assay type in all cases: cell-based
# [1] = biological target: T1, human TLR8 (Homo sapiens, UniProt Q9NR97); assay: TLR7/8/9 Inhibition Reporter Assays (TLR8); conditions: HEK-Blue cells overexpressing human TLR8, SEAP reporter, stimulated with TLR8 ligand R848
# T1 construct: host or cells: HEK-Blue cells (HEK293-derived reporter line)
# T1 sequence (Q9NR97 27-1041): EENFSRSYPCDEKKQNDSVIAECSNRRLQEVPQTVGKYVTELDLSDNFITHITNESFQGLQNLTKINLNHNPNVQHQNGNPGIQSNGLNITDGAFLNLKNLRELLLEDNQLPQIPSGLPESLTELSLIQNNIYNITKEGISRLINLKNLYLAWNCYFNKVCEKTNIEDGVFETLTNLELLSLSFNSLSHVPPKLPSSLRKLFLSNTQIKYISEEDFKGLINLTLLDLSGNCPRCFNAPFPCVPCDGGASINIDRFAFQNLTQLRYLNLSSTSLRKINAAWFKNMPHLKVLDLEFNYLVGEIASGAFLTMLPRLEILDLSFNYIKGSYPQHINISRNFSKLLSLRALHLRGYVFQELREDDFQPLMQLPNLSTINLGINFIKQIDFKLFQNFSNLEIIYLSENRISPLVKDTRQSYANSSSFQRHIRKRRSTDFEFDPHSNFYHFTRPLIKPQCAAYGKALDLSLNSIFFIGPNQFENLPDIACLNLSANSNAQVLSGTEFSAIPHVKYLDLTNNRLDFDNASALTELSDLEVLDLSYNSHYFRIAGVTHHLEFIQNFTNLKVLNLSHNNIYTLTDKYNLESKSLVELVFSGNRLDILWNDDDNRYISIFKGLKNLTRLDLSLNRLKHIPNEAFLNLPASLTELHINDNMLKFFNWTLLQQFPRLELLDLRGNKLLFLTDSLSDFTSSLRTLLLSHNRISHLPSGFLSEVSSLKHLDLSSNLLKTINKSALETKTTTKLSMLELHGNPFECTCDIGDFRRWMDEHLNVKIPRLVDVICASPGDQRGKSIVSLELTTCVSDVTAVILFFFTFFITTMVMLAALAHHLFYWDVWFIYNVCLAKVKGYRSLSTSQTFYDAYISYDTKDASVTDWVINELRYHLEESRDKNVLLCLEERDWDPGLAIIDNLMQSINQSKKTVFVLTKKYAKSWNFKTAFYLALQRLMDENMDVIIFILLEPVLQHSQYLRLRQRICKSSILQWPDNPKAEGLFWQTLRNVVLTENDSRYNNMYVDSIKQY
# Summary of the method: (§1)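 HEK-Blue cells overexpressing human TLR7, TLR8 or TLR9 with NF-κB/AP-1-driven SEAP reporter, pre-treated 60 min with compound ([…]). Stimulated with […] (TLR7), […] (TLR8) or ODN2006 200 nM (TLR9), then 22 h at 37° C; SEAP measured, % inhibition relative to agonist-plus-DMSO and known-inhibitor wells.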
# [2] = biological target: T2, human TLR7 (Homo sapiens, UniProt Q9NYK1); assay: TLR7/8/9 Inhibition Reporter Assays (TLR7); conditions: HEK-Blue cells overexpressing human TLR7, SEAP reporter, stimulated with TLR7 ligand gardiquimod
# T2 construct: host or cells: HEK-Blue cells (HEK293-derived reporter line)
# T2 sequence (Q9NYK1 27-1049): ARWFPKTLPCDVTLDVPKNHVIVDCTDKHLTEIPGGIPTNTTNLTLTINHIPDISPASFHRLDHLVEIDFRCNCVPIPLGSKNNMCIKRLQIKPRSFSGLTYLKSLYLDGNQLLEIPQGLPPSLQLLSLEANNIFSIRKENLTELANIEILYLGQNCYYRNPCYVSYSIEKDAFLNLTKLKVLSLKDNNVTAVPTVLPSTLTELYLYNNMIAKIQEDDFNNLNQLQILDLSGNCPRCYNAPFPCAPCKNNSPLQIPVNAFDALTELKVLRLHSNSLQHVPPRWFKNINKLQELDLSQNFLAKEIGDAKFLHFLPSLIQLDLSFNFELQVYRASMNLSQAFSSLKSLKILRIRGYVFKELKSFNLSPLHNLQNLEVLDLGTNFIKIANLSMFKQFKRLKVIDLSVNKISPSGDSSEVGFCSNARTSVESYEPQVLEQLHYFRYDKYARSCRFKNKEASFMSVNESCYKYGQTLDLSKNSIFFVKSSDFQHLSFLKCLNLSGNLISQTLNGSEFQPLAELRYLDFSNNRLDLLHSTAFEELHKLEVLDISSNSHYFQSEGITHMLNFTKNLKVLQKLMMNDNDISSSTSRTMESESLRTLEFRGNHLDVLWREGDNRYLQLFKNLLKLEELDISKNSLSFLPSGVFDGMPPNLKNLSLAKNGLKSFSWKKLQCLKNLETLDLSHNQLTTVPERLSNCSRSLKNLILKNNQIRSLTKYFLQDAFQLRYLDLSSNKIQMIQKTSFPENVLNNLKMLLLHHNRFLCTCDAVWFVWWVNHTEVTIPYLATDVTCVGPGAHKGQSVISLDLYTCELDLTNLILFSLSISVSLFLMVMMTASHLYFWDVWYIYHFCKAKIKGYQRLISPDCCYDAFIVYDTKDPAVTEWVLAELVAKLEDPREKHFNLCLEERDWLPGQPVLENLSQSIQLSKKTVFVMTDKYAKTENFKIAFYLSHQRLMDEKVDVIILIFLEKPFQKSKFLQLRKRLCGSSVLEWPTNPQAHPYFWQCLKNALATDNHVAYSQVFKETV
# Summary of the method: as §1
# [3] = biological target: T3, human TLR9 (Homo sapiens, UniProt Q9NR96); assay: TLR7/8/9 Inhibition Reporter Assays (TLR9); conditions: HEK-Blue cells overexpressing human TLR9, SEAP reporter, stimulated with TLR9 ligand ODN2006
# T3 construct: host or cells: HEK-Blue cells (HEK293-derived reporter line)
# T3 sequence (Q9NR96 26-1032): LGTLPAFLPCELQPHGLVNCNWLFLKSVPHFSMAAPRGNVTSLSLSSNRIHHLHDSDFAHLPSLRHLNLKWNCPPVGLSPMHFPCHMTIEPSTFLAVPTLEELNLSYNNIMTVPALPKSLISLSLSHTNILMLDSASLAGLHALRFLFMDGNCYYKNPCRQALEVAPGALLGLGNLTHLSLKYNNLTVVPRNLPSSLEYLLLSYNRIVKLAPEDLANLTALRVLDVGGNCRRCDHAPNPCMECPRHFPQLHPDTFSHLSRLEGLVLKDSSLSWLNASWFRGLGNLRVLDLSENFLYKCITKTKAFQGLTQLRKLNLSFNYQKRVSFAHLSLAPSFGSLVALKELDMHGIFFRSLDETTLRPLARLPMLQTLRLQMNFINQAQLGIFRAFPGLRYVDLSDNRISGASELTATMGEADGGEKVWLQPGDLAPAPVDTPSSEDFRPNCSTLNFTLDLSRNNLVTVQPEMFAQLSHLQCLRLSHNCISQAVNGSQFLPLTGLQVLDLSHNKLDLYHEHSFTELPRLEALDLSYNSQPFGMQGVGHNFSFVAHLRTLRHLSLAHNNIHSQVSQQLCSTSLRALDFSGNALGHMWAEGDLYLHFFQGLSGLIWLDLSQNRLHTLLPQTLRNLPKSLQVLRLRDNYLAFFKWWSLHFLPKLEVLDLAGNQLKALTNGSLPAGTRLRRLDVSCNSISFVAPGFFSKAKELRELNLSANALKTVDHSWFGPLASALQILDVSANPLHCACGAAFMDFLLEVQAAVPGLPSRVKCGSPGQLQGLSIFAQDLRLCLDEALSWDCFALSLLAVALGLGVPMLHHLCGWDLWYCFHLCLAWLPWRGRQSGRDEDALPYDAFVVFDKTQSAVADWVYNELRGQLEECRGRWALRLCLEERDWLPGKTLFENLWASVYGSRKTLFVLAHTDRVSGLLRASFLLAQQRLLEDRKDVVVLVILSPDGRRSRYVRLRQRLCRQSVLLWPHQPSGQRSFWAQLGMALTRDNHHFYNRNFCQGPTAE
# Summary of the method: as §1
IC50 [1] [nM],IC50 [2] [nM],IC50 [3] [nM],Structure (SMILES)
> 50000,4000,230,"COc1ccc(-c2nc3c(C)nc(-c4ccc(N5CCC6(CC5)CN(C5COC5)C6)cc4)cc3n2C)cc1OC [Example 106, 2-(3,4-dimethoxyphenyl)-1,4-dimethyl-6-(4-(2-(oxetan-3-yl)-2,7-diazaspiro[3.5]nonan-7-yl)phenyl)-1H-imidazo[4,5-c]pyridine]"
> 50000,30000,980,"Cc1nc(-c2ccc(N3CC4(C3)CN(C3COC3)C4)cc2)cc2c1nc(-c1ccc(S(C)(=O)=O)cc1)n2C [Example 107, 1,4-dimethyl-2-(4-(methylsulfonyl)phenyl)-6-(4-(6-(oxetan-3-yl)-2,6-diazaspiro[3.3]heptan-2-yl)phenyl)-1H-imidazo[4,5-c]pyridine]"
> 25000,29000,740,"Cn1c(-c2ccc(S(C)(=O)=O)cc2)nc2cnc(-c3ccc(N4CCC5(CC4)CN(C4COC4)C5)cc3)cc21 [Example 108, 1-methyl-2-(4-(methylsulfonyl)phenyl)-6-(4-(2-(oxetan-3-yl)-2,7-diazaspiro[3.5]nonan-7-yl)phenyl)-1H-imidazo[4,5-c]pyridine]"

# More lines, now with the values behind:
Structure (SMILES),IC50 [1] [nM],IC50 [2] [nM],IC50 [3] [nM]
"CC(C)CN1CC2(CCN(c3ccc(-c4cc5c(cn4)nc(-c4ccc(S(C)(=O)=O)cc4)n5C)cc3)C2)C1 [Example 99, 6-(4-(2-isobutyl-2,6-diazaspiro[3.4]octan-6-yl)phenyl)-1-methyl-2-(4-(methylsulfonyl)phenyl)-1H-imidazo[4,5-c]pyridine]",900,3100,220
"Cc1nc(-c2ccc(N3CC4(CCN(CC(C)(C)O)CC4)C3)cc2)cc2c1nc(-c1ccc(S(C)(=O)=O)cc1)n2C [Example 100, 1-(2-(4-(1,4-dimethyl-2-(4-(methylsulfonyl)phenyl)-1H-imidazo[4,5-c]pyridin-6-yl)phenyl)-2,7-diazaspiro[3.5]nonan-7-yl)-2-methylpropan-2-ol]",2200,3300,650
"COCCN1CC2(C1)CN(c1ccc(-c3cc4c(nc(-c5ccc(OC)c(OC)c5)n4C)c(C)n3)cc1)C2 [Example 101, 2-(3,4-dimethoxyphenyl)-6-(4-(6-(2-methoxyethyl)-2,6-diazaspiro[3.3]heptan-2-yl)phenyl)-1,4-dimethyl-1H-imidazo[4,5-c]pyridine]",> 50000,1800,85
"COc1ccc(-c2nc3c(C)nc(-c4ccc(N5CC6(C5)CN(C5COC5)C6)cc4)cc3n2C)cc1OC [Example 102, 2-(3,4-dimethoxyphenyl)-1,4-dimethyl-6-(4-(6-(oxetan-3-yl)-2,6-diazaspiro[3.3]heptan-2-yl)phenyl)-1H-imidazo[4,5-c]pyridine]",> 50000,9100,320
"COCCN1CC2(CCN(c3ccc(-c4cc5c(nc(-c6ccc(OC)c(OC)c6)n5C)c(C)n4)cc3)CC2)C1 [Example 103, 2-(3,4-dimethoxyphenyl)-6-(4-(2-(2-methoxyethyl)-2,7-diazaspiro[3.5]nonan-7-yl)phenyl)-1,4-dimethyl-1H-imidazo[4,5-c]pyridine]",> 50000,1700,140
"COCCN1CC2(C1)CN(c1ccc(-c3cc4c(nc(-c5ccc(S(C)(=O)=O)cc5)n4C)c(C)n3)cc1)C2 [Example 104, 6-(4-(6-(2-methoxyethyl)-2,6-diazaspiro[3.3]heptan-2-yl)phenyl)-1,4-dimethyl-2-(4-(methylsulfonyl)phenyl)-1H-imidazo[4,5-c]pyridine]",16000,7700,210
"COCCN1CC2(CCN(c3ccc(-c4cc5c(cn4)nc(-c4ccc(S(C)(=O)=O)cc4)n5C)cc3)CC2)C1 [Example 105, 6-(4-(2-(2-methoxyethyl)-2,7-diazaspiro[3.5]nonan-7-yl)phenyl)-1-methyl-2-(4-(methylsulfonyl)phenyl)-1H-imidazo[4,5-c]pyridine]",2200,4500,600
